This note sets out measurements from publication PMC6018403 (Frontiers in Pharmacology, 2018).

Like-named read-outs stand apart in the source and are kept apart here. Bounds are passed on as bounds.

This series is described as follows: Multi-component pharmacokinetic study of GQD, GQD-GC and single herb extracts in rats (plasma, LC/MS/MS). The series is classed as in vivo, Sprague-Dawley rats. To be noted: for AUC(0-t) / Cmax / half-life / Tmax: male, Sprague-Dawley, rat; for Tmax: read-out: Tmax; for bioavailability in the GQD group compared with the Ge-Gen group: rats, oral. The protocol:
Male Sprague-Dawley rats (220–250 g) were used for PK study, and the details were described in Supplemental Data. All procedures were in accordance with the National Institutes of Health Guide for the Care and Use of Laboratory Animals.
For PK study of GQD and its component herbs, rats were randomly divided into six groups (n = 10 for each group) before oral administration.
All blood samples were immediately centrifuged at 6,000 rpm (4°C) for 20 min to obtain plasma. The plasma samples were stored at −80°C.
A Finnigan TSQ Quantum triple quadrupole mass spectrometer was connected to a Surveyor HPLC via ESI interface (ThermoFisher). High purity nitrogen was used as the sheath and auxiliary gas; Ultra-high purity argon was used as the collision gas (1.5 mTorr). Q1 and Q3 quadrupoles were set at unit resolution. […] The column temperature was 40°C. The mobile phase consisted of acetonitrile containing 2% (v/v) methanol (A) and water containing 0.1% (v/v) formic acid (B). […] An aliquot of 5 μL was injected for analysis. UV spectra were obtained by scanning from 200 to 400 nm. The mass spectrometer was operated in the (+)-ESI mode. The optimized parameters were as follows: sheath gas (N2), 50 arb; auxiliary gas (N2), 5 arb; spray voltage, 4.0 kV; capillary temperature, 330°C; collision energy, see Table S1. Analytes were detected in the selected reaction monitoring (SRM) mode. Data were processed by Xcalibur 2.0.7 software (ThermoFisher).
LC/MS/MS calibration and quantitation data were processed with Xcalibur 2.0.7 software (ThermoFisher). The maximal plasma concentrations (Cmax) and their time of occurrence (Tmax) were obtained directly from the measured data. Other pharmacokinetic parameters were calculated by non-compartment or compartment models using WinNonlin® software (v6.1, Pharsight). Unless otherwise stated, results were expressed as the mean ± SD. Statistical significance in differences of the means was determined by Student's t–test, with a significance level of P < 0.05.
Herbal materials and extracts.
The four component herbs, Puerariae Lobatae Radix (Ge-Gen, GG), Scutellariae Radix (Huang-Qin, HQ), Coptidis Rhizoma (Huang-Lian, HL), and Glycyrrhizae Radix et Rhizoma Praeparata cum Melle (Gan-Cao, GC) were purchased from Tianheng Pharmacy. GQD was prepared by decocting the four component herbs […]
pre-extraction of Ge-Gen using 200 mL of water for 0.5 h. The decoctions were combined, filtered, and concentrated in vacuum at 50 °C. GQD-GC was prepared using the same procedure, except that Gan-Cao was removed from the formula. Final concentration of the GQD-GC extract was equivalent to 1.0 g of the crude drugs per mL. For single herb extracts, the herbs were decocted in 8-fold volume of water for […]
Final concentrations of the extracts were 1.0 g/mL for Ge-Gen, and 0.5 g/mL for Huang-Qin, Huang-Lian and […]
For pharmacokinetic study, Male Sprague-Dawley rats (220-250 g) were obtained from the Laboratory Animal Center of Peking University Health Science Center. The […]
The rats had free access to tap water and soy-free custom diet (Ke’ao Xieli Co.). All procedures were in accordance with the National Institutes of Health Guide for the Care and Use of Laboratory Animals […]
Experimental details for the PK study
1. Preparation of internal standard solution, calibration standard solutions, and quality control solutions […]
internal standard solution. Reference standard compounds were dissolved in the internal standard solution to prepare individual stock solutions (1.0 mg/mL). These […]
each compound. The standard solution was then serially diluted to obtain calibration […]
Quality control stock solutions were prepared at three concentration levels as high QC (HQC), middle QC (MQC), and low QC (LQC), based on linear ranges of the analytes.
2.1. Sample preparation for pharmacokinetic study
The calibration standard and quality control solutions for pharmacokinetic study were […]

[1] abbreviates: in vivo, GG (Ge-Gen) group: rats, oral extract 9.45 g/kg, plasma.
Where [2] appears, read: in vivo, GQD group: rats, oral GQD extract 18.9 g/kg, plasma.
[3] abbreviates: in vivo, GQD-GC group (GQD without Gan-Cao): rats, oral 16.5 g/kg, plasma.
Setting [4] is: plasma, po, 9.45 g/kg, GG (Ge-Gen) group: rats, oral extract 9.45 g/kg, plasma, read-out: AUClast.
Setting [5] is: plasma, po, 16.5 g/kg, GQD-GC group (GQD without Gan-Cao): rats, oral 16.5 g/kg, plasma, read-out: AUClast.
[6] abbreviates: plasma, po, 18.9 g/kg, GQD group: rats, oral GQD extract 18.9 g/kg, plasma, read-out: AUClast.
[7] abbreviates: GG (Ge-Gen) group: rats, oral extract 9.45 g/kg, plasma, read-out: Cmax.
Where [8] appears, read: GG (Ge-Gen) group: rats, oral extract 9.45 g/kg, plasma, read-out: T1/2 (converted).
[9] abbreviates: GG (Ge-Gen) group: rats, oral extract 9.45 g/kg, plasma.
Where [10] appears, read: GQD group: rats, oral GQD extract 18.9 g/kg, plasma, read-out: Cmax.
Setting [11] is: GQD group: rats, oral GQD extract 18.9 g/kg, plasma, read-out: T1/2 (converted).
Setting [12] is: GQD group: rats, oral GQD extract 18.9 g/kg, plasma.
[13] abbreviates: GQD-GC group (GQD without Gan-Cao): rats, oral 16.5 g/kg, plasma, read-out: Cmax.
The mark [14] stands for this setting: GQD-GC group (GQD without Gan-Cao): rats, oral 16.5 g/kg, plasma, read-out: T1/2 (converted).
The mark [15] stands for this setting: GQD-GC group (GQD without Gan-Cao): rats, oral 16.5 g/kg, plasma.

For `O=c1c(-c2ccc(O)cc2)coc2cc(O[C@@H]3O[C@H](CO)[C@@H](O)[C@H](O)[C@H]3O)ccc12` [Compound 1, Daidzin], the “bioavailability in the GQD group compared with the Ge-Gen group” value is “higher”. The AUC(0-t) (in vivo, po, 9.45 g/kg, GG (Ge-Gen) group: rats, oral extract 9.45 g/kg, plasma, read-out: AUClast) was 290 ± 42.2 ng·h/mL. Besides, the AUC(0-t) (in vivo, po, 9.45 g/kg, Ge-Gen group: rats, oral 9.45 g/kg, plasma, read-out: AUClast) is 290 ± 42.2 ng·h/mL. Also, for the setting “in vivo, po, 16.5 g/kg, GQD-GC group (GQD without Gan-Cao): rats, oral 16.5 g/kg, plasma, read-out: AUClast”, the AUC(0-t) amounted to 282 ± 61.6 ng·h/mL. Also, the AUC(0-t) (in vivo, po, 18.9 g/kg, GQD group: rats, oral GQD extract 18.9 g/kg, plasma, read-out: AUClast) came out at 346 ± 30.3 ng·h/mL. Also, the AUC(0-t) (in vivo, po, 18.9 g/kg, GQD group: rats, oral GQD 18.9 g/kg (1.5-fold of clinical dosage), plasma, read-out: AUClast) was > 300 ng·h/mL. In addition, the Cmax (in vivo, GG (Ge-Gen) group: rats, oral extract 9.45 g/kg, plasma, read-out: Cmax) is 58 ± 0.77 ng/mL. Besides, under “in vivo, GG (Ge-Gen) group: rats, oral extract 9.45 g/kg, plasma, read-out: T1/2 (converted)”, the half-life is 0.74 ± 0.33 h. Further, the Tmax under setting [1] is 0.38 ± 0.04 h. Also, the highest concentration (Cmax) (in vivo, GQD group: rats, oral GQD extract 18.9 g/kg, plasma, read-out: Cmax) worked out at 27.4 ± 3.34 ng/mL. Besides, the half-life (in vivo, GQD group: rats, oral GQD extract 18.9 g/kg, plasma, read-out: T1/2 (converted)) was 3.96 ± 1.02 h. For the same compound, under setting [2], the time of peak concentration (Tmax) worked out at 0.88 ± 0.11 h. Moreover, under “in vivo, GQD-GC group (GQD without Gan-Cao): rats, oral 16.5 g/kg, plasma, read-out: Cmax”, the maximum concentration (Cmax) turned out to be 52.4 ± 2.21 ng/mL. Besides, the half-life (in vivo, GQD-GC group (GQD without Gan-Cao): rats, oral 16.5 g/kg, plasma, read-out: T1/2 (converted)) was 1.63 ± 0.14 h. Further, the Tmax under setting [3] was determined as 0.58 ± 0.24 h.
Take `O=c1c(-c2ccc(O)cc2)coc2cc(O)ccc12` [Compound 3, daidzein]: the maximum concentration (Cmax) (in vivo, po, 9.45 g/kg) turned out to be 188 ± 10.4 ng/mL; the highest concentration (Cmax) (in vivo, po, 16.5 g/kg) came out at 83.5 ± 3.23 ng/mL; the highest level (in vivo, po, 18.9 g/kg) (Cmax) was 186 ± 36.2 ng/mL. Besides, the half-life reads like this: (in vivo, po, 9.45 g/kg) 5.12 ± 0.87 h; (in vivo, po, 16.5 g/kg) 4.28 ± 1.47 h; (in vivo, po, 18.9 g/kg) 6.23 ± 1.36 h. For the same compound, the AUC(0-t) was 2640 ± 1150 ng·h/mL (in vivo, po, 9.45 g/kg, AUClast); 674 ± 604 ng·h/mL (in vivo, po, 16.5 g/kg, AUClast); 3050 ± 998 ng·h/mL (in vivo, po, 18.9 g/kg, AUClast). Moreover, the Tmax reads like this: under setting [1], 8 ± 0.14 h; under setting [2], 8 ± 12.8 h; under setting [3], 0.25 ± 0.32 h.
With `O=c1c(-c2ccc(O)cc2)coc2cc(O[C@@H]3O[C@H](CO)[C@@H](O)[C@H](O)[C@H]3O)cc(O)c12` [Compound 4, genistin], the “bioavailability in the GQD group compared with the Ge-Gen group” value is reported as “higher”. Also, under setting [4], the AUC(0-t) was 51.7 ± 24.2 ng·h/mL. Further, under setting [5], the AUC(0-t) is 88.2 ± 24.3 ng·h/mL. For the same compound, under setting [6], the AUC(0-t) is 72.6 ± 15.2 ng·h/mL. Under setting [7], the Cmax stood at 3.09 ± 1.99 ng/mL. The half-life under setting [8] was 6.88 ± 5.23 h. For the same compound, the time of peak concentration (Tmax) under setting [9] is 1 ± 2.31 h. Further, the Cmax under setting [10] came to 4.97 ± 1.11 ng/mL. In addition, the half-life under setting [11] is 6.93 ± 0.73 h. In addition, the Tmax under setting [12] was 1.04 ± 0.78 h. Under setting [13], the highest concentration (Cmax) stood at 8.08 ± 3.19 ng/mL. In addition, the half-life under setting [14] was 8.17 ± 2.43 h. Further, the Tmax under setting [15] was 1.04 ± 0.75 h.
For `COc1ccc(-c2coc3c(C4OC(COC5OCC(O)(CO)C5O)C(O)C(O)C4O)c(O)ccc3c2=O)cc1` (stereo not shown) [Compound 5, formononetin 8-C-apiofuranosyl(1,6)glucoside], the “bioavailability in the GQD group compared with the Ge-Gen group” value is listed as “higher”. Further, the AUC(0-t) under setting [4] is 85 ± 19.2 ng·h/mL. The AUC(0-t) under setting [5] is 26 ± 7.29 ng·h/mL. The AUC(0-t) under setting [6] stood at 168 ± 83.3 ng·h/mL. In addition, under setting [7], the Cmax is 18.4 ± 5.1 ng/mL. Also, under setting [8], the half-life was 8.98 ± 2.34 h. Moreover, under setting [9], the Tmax was 0.39 ± 0.17 h. For the same compound, the Cmax under setting [10] came out at 16 ± 5.44 ng/mL. Also, under setting [11], the half-life is 7.03 ± 2.31 h. Besides, under setting [12], the Tmax was 0.76 ± 3.76 h. The Cmax under setting [13] was 6.87 ± 2.05 ng/mL. Besides, the half-life under setting [14] is 5.23 ± 1.35 h. Also, the time of peak concentration (Tmax) under setting [15] was determined as 0.52 ± 0.65 h.
With `O=c1c(-c2ccc(O)cc2)coc2c(C3OC(COC4OCC(O)(CO)C4O)C(O)C(O)C3O)c(O)cc(O)c12` (stereo not shown) [Compound 6, genistein 8-C-apiofuranosyl(1,6)glucoside], the AUC(0-t) under setting [4] was 168 ± 33.6 ng·h/mL, the AUC(0-t) under setting [5] came to 96.3 ± 105 ng·h/mL and the AUC(0-t) under setting [6] was found to be 98.8 ± 24.8 ng·h/mL. Besides, the Cmax by setting is: under setting [7], 11.3 ± 1.8 ng/mL; under setting [10], 11.3 ± 3.32 ng/mL; under setting [13], 12.1 ± 7.87 ng/mL. Moreover, the half-life is 5.57 ± 3.48 h under setting [8], 6.77 ± 3.44 h under setting [11] and 2.15 ± 1.7 h under setting [14]. Besides, the Tmax under setting [9] is 0.73 ± 0.3 h, the Tmax under setting [12] was found to be 8.39 ± 0.23 h and the Tmax under setting [15] turned out to be 1.56 ± 1.53 h.
As to `O=c1c(-c2ccc(O)cc2)coc2c([C@@H]3O[C@H](CO)[C@@H](O)[C@H](O)[C@H]3O)c(O)ccc12` [Compound 7, puerarin], the “bioavailability in the GQD group compared with the Ge-Gen group” value is given as “higher”. For the same compound, the AUC(0-t) under setting [4] was found to be 5020 ± 536 ng·h/mL. Besides, the AUC(0-t) (plasma, po, 9.45 g/kg, Ge-Gen group: rats, oral 9.45 g/kg, plasma, read-out: AUClast) worked out at 5020 ± 536 ng·h/mL. Under setting [5], the AUC(0-t) worked out at 5610 ± 279 ng·h/mL. For the same compound, under setting [6], the AUC(0-t) stood at 8610 ± 766 ng·h/mL. The Cmax under setting [7] was determined as 488 ± 23.9 ng/mL. Also, the half-life under setting [8] was 6.36 ± 4.39 h. Moreover, under setting [9], the Tmax worked out at 0.59 ± 0.01 h. For the same compound, the Cmax under setting [10] amounted to 577 ± 56.3 ng/mL. Further, the half-life under setting [11] was 5.58 ± 2.9 h. The Tmax under setting [12] worked out at 1.2 ± 1.49 h. Also, under setting [13], the highest concentration (Cmax) came out at 416 ± 232 ng/mL. In addition, the half-life under setting [14] is 8.29 ± 2.22 h. Further, the time of peak concentration (Tmax) under setting [15] came out at 0.52 ± 0.07 h.
